# Data: ChEMBL document CHEMBL1137335, “Multivalent effects of RGD peptides obtained by nanoparticle display” (J Med Chem, 2006)
# Positions of bridges follow the written chain, without caps; N, C: chain ends. Residues, ends and D or L forms follow the SMILES beside them. *: point of attachment. 5FAM = O=C1OC2(c3ccc(O)cc3Oc3cc(O)ccc32)c2ccc(C(=O)*)cc21
# How the values were obtained:
# BT-20 [1] = experiment: Level of peptide binding to human BT20 cells indicating presence of integrin alphaVbeta3; assay type: functional
# 9L = experiment: Level of peptide binding to rat 9L cells indicating presence of integrin alphaVbeta3; assay type: functional
# HUVEC [2] = experiment: Uptake in human HUVEC; assay type: functional, cell-based
# HUVEC [3] = experiment: Antiadhesive activity against human HUVEC; assay type: functional, cell-based
# BT-20 [4] = experiment: Uptake in human BT20 cells; assay type: functional, cell-based
# BT-20 [5] = experiment: Antiadhesive activity against human BT20 cells; assay type: functional, cell-based
compound,measurement,setting,value
NCC(=O)N[C@@H](CO)C(=O)N[C@@H](CO)C(=O)N[C@@H](CCCCNC(=O)c1ccc2c(c1)C(=O)OC21c2ccc(O)cc2Oc2cc(O)ccc21)C(=O)NCC(=O)NCC(=O)NCC(=O)N[C@H]1CSSC[C@@H](C(=O)O)NC(=O)[C@H](CC(=O)O)NC(=O)CNC(=O)[C@H](CCCN=C(N)N)NC1=O (H-GSSK(5FAM)GGGCRGDC-OH; disulfide 8-12),Activity,BT-20 [1],0.82 pmol
same,Activity,9L,0.16 pmol
same,EC50,HUVEC [2],6 µM
same,IC50,HUVEC [3],0.76 µM
same,EC50,BT-20 [4],1.2 µM
same,IC50,BT-20 [5],130 µM
